Where no end group is shown, it is not given here. [ ]: non-standard residue; d: D form. pGlu = O=C1CC[C@@H](C(=O)O)N1

The test system of experiment [1] is HIV-1IIIB. Briefly: HIV-1 antiviral assay in CEM-SS cells (MTS readout).
Experiment [2] relates to HCMV strain AD169. Briefly: HCMV plaque formation assay in MRC-5 cells. The following applies: for inhibition of HCMV plaque formation as compared to the virus control: 10 micrograms per ml, 7-10 days.
In experiment [3] the test system is murine spleen cells. Briefly: Th1/Th2 cytokine profiling assay (Ovalbumin restimulation). In kind it is cell-based, Balb/c mice. The following applies: 10 micrograms per ml, 72 hours.
Experiment [4] relates to hepatitis B virus (HBV) ayw strain. Briefly: HBV assay in HepG2-2.2.15 cells (TaqMan PCR of secreted HBV DNA). In kind it is cell-based. The note with it: 10 micrograms per ml; six days; combination 0.95 mole peptide 1 and 1.05 mole peptide 2. The source says: HepG2-2.2.15 is a stable cell line containing the hepatitis B virus (HBV) ayw strain genome (ATCC Cat. No. CRL-11997). Antiviral compounds blocking any late step of viral replication such as transcription, translation, pregenome encapsidation, reverse transcription, particle assembly and release can be identified and characterized using this cell line. In this assay, an active compound will reduce the production of secreted HBV from cells, measured by utilizing real time quantitative PCR (TaqMan) assay to directly and accurately measure HBV DNA copies. […] After 16-24 hours the confluent monolayer of HepG2-2.2.15 cells was washed and the medium was replaced with complete medium containing test peptides—10 micrograms per ml—in duplicate. Lamivudine (3TC) was used as the positive control, while media alone was added to the cells as a negative control (virus control). […] Six days following the initial administration of the peptides, the cell culture supernatants was collected, treated with pronase and DNAse and then used in a real-time quantitative TaqMan PCR assay. The PCR-amplified HBV DNA was detected in real-time by monitoring increases in fluorescence signals that result from the exonucleolytic degradation of a quenched fluorescence probe molecule that hybridizes to the amplified HBV DNA. […] Antiviral activity was calculated from the reduction in HBV DNA levels (% virus control). […]
For orientation: Quantitative PCR measures a nucleic acid by following its amplification.

The subject of experiment [5] is Primary Human endothelial cells (HUVEC). Briefly: Endothelial cell migration assay. The format is cell-based. The following applies: 10 micrograms per ml; 22 hours.
Experiment [6] deals with HUVEC. Briefly: Endothelial tube formation assay. In kind it is cell-based, human. The following applies: 10 micrograms per ml; 20 hours.
Protocol: The endothelial tube formation assay is based on the ability of endothelial cells to form three-dimensional capillary-like tubular structures when cultured on a gel of basement membrane extract. […] Pre-labeled HUVEC with Calcein AM were seeded in a 96-well culture plate coated with extracellular metrix (Chemicon international Cat. ECM625) and treated with test peptides—10 micrograms per ml—in full growth medium. Positive control wes vehicle only. The endothelial cells were allowed to form tubes foe 20 hours and were then examined under an inverted fluorescent microscope. Duplicate wells for each treatment were photographed and quantitatevily analyzed for an average tubule length using image analysis software ImageProPlus. Raw data were expressed as average tubule lengths in pixels ±standard deviation. Statistic p values were computed using the Student's t-test.
Where [7] appears, read: combination 0.95 mole peptide 1 and 1.05 mole peptide 2.

Turning to `Cc1cn([C@H]2C[C@H](N=[N+]=[N-])[C@@H](CO)O2)c(=O)[nH]c1=O` [AZT], the “antiviral activity of positive control compounds” value in experiment [1] is “expected levels of antiviral activity”.

Regarding `Nc1nc(O)c2ncn(COC(CO)CO)c2n1` [Ganciclovir, reference compound], the “antiviral activity of positive control compound” value in experiment [2] (positive control, MRC-5 cells, HCMV AD169) is “expected levels of antiviral activity”.

Regarding `CC(C)(C)NC(=O)[C@@H]1CN(Cc2cccnc2)CCN1C[C@@H](O)C[C@@H](Cc1ccccc1)C(=O)N[C@H]1c2ccccc2C[C@H]1O` [indinavir], in experiment [1], the “antiviral activity of positive control compounds” value is “expected levels of antiviral activity”.

On to “Ala-Arg-Leu-Asp-Val-Ala-Ser-Glu-Phe-Arg-Lys-Lys-Trp-Asn-Lys-Trp-Ala-Leu-Ser-Arg-NH2 (ARLDVASEFRKKWNKWALSR-NH2) [Peptide 1]”, for which, in experiment [3], the “production of IL-2, induced by” value worked out at 44.3% and the “production of IL-4, induced by” value was 43.2%. Besides, in experiment [3] (setting [7]), the “change of the production of IFN-γ” value is reported as “did not significantly change”, the “change of the production of IL-5” value is on record as “did not significantly change” and the “change of the production of TNF-alpha” value is on record as “did not significantly change”. For the same molecule, the “inhibition of HBV replication as compared to the virus control infection” value in experiment [4] was found to be 10.0%. Moreover, the “inhibition of the migration of human endothelial cells” value in experiment [5] is “did not inhibit”. Further, the “inhibition of HCMV plaque formation as compared to the virus control” value in experiment [2] was “did not inhibit”.

“Pyr-Leu-Gly-Pro-Gln-Gly-Pro-Pro-His-Leu-Val-Ala-Asp-Pro-Ser-Lys-Lys-Gln-Gly-Pro-Trp-Leu-Glu-Glu-Glu-Glu-Glu-Ala-Tyr-Gly-Trp-Met-Asp-Phe-NH2 ([pGlu]LGPQGPPHLVADPSKKQGPWLEEEEEAYGWMDF-NH2; SMILES CSCC[C@H](NC(=O)[C@H](Cc1c[nH]c2ccccc12)NC(=O)CNC(=O)[C@H](Cc1ccc(O)cc1)NC(=O)[C@H](C)NC(=O)[C@H](CCC(=O)O)NC(=O)[C@H](CCC(=O)O)NC(=O)[C@H](CCC(=O)O)NC(=O)[C@H](CCC(=O)O)NC(=O)[C@H](CCC(=O)O)NC(=O)[C@H](CC(C)C)NC(=O)[C@H](Cc1c[nH]c2ccccc12)NC(=O)[C@@H]1CCCN1C(=O)CNC(=O)[C@H](CCC(N)=O)NC(=O)[C@H](CCCCN)NC(=O)[C@H](CCCCN)NC(=O)[C@H](CO)NC(=O)[C@@H]1CCCN1C(=O)[C@H](CC(=O)O)NC(=O)[C@H](C)NC(=O)[C@@H](NC(=O)[C@H](CC(C)C)NC(=O)[C@H](Cc1c[nH]cn1)NC(=O)[C@@H]1CCCN1C(=O)[C@@H]1CCCN1C(=O)CNC(=O)[C@H](CCC(N)=O)NC(=O)[C@@H]1CCCN1C(=O)CNC(=O)[C@H](CC(C)C)NC(=O)[C@@H]1CCC(=O)N1)C(C)C)C(=O)N[C@@H](CC(=O)O)C(=O)N[C@@H](Cc1ccccc1)C(N)=O) [Peptide 2]”: in experiment [3], the “production of IL-2, suppressed by” value was determined as 100%; the “production of IL-4, suppressed by” value is 100%; the “production of IL-5, deceased by” value amounted to 44.5%. Besides, in experiment [3] (setting [7]), the “change of the production of IFN-γ” value is on record as “did not significantly change” and the “change of the production of TNF-alpha” value is “did not significantly change”. Also, in experiment [4], the “inhibition of HBV replication as compared to the virus control infection” value is reported as 11.3%. In addition, the “inhibition of the migration of human endothelial cells” value in experiment [5] is on record as 35%. Further, the “inhibition of the tube formation of human endothelial cells” value in experiment [6] is listed as 9%. The “inhibition of HCMV plaque formation as compared to the virus control” value in experiment [2] is “did not inhibit”.
